Patent publication US6372261B1, “Process for producing Guilu ErXiangao” (Pharmaceutical Industry Technology and Development Center, priority 2000, dated 2002)

System: leukopenia caused by 5-FU
Test: hemopoietic effect in animal experimentation: leukopenia caused by 5-FU in rats, blood cell counts
Assay type: in vivo
[1] = male rats, 5-FU 100 mg/kg orally twice on 8th day, blood after 14 days, mean ± SEM
[2] = rats, 5-FU model, values of Table 1
[3] = rats, p<0.01 vs control (5-FU), p<0.05 vs trial 1

Q: Which results are given for `O=c1[nH]cc(F)c(=O)[nH]1` [Trial 5-FU, 5-fluorouracil]?
A: GrC. (granulocyte) [1]: 0.66 ± 0.11 × 10^3/μl; LymC. (lymphocyte) [1]: 2.21 ± 0.15 × 10^3/μl; MonoC. (monocyte) [1]: 0.84 ± 0.12 × 10^3/μl; Platelet [1]: 983.5 ± 52.0 × 10^3/μl; RBC (red blood cell) [1]: 9.58 ± 0.14 × 10^6/μl; WBC (white blood cell) [1]: 3.70 ± 0.23 × 10^3/μl; granulocyte (mean) [2]: 0.66 ± 0.11 10^3/µL; lymphocyte (mean) [2]: 2.21 ± 0.15 10^3/µL; monocyte (mean) [2]: 0.84 ± 0.12 10^3/µL; white blood cells (mean) [2]: 3.7 ± 0.23 10^3/µL; effect on granulocytes (in words) (rats, p<0.01 vs control (5-FU) or vs trial 1): inhibited; effect on lymphocytes (in words) [3]: inhibited; effect on monocytes (in words) [3]: inhibited; effect on white blood cells (in words) (rats, unpaired student t test, p<0.01 vs control (5-FU) or vs trial 1): inhibited
